Data reported in paper PMC8820799, “Angiogenesis and anti-leukaemia activity of novel indole derivatives as potent colchicine binding site inhibitors” (Journal of Enzyme Inhibition and Medicinal Chemistry, 2022).
Values after ≈ are worked out from the molar mass of the structure shown. Like-named read-outs stand apart in the source and are kept apart here.

Legend:
[1] = In vitro metabolic stability, mouse liver microsomes; format: in vitro ADME; settings: 0.4 mg/mL protein
Protocol: (§1) The metabolic stability assay was performed by incubating the test compound in mouse or human liver microsomes (XenoTech, lot no. 1510256) at 37 °C and a protein concentration of 0.4 mg/mL. Microsomal incubations were performed at a substrate concentration of 0.5 µM. Data analysis. Species scaling factors were used to convert the in vitro CLint(mL/min/mg) to an in vivo CLint(mL/min/kg).

[2] = biological target: T1, tubulin colchicine binding site (Sus scrofa, UniProt P02550+P02554); assay: [3H]colchicine-tubulin binding assay; settings: compared with the positive control CA-4; Figure 4D
T1 construct: purchased Cytoskeleton, Inc
T1 sequence (P02554 whole entry): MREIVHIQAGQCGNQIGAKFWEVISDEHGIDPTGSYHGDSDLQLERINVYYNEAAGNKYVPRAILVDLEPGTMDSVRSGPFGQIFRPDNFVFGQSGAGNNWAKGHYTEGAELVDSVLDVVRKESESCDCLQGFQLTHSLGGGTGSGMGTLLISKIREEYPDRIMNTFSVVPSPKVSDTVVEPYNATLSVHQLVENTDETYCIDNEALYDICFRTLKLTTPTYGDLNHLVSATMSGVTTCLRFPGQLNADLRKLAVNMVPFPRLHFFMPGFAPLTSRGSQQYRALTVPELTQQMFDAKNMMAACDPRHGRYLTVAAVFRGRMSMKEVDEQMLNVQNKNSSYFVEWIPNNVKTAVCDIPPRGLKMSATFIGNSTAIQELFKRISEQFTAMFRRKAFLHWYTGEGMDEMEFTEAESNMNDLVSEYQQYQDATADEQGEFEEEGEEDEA
T1 sequence (P02550 whole entry): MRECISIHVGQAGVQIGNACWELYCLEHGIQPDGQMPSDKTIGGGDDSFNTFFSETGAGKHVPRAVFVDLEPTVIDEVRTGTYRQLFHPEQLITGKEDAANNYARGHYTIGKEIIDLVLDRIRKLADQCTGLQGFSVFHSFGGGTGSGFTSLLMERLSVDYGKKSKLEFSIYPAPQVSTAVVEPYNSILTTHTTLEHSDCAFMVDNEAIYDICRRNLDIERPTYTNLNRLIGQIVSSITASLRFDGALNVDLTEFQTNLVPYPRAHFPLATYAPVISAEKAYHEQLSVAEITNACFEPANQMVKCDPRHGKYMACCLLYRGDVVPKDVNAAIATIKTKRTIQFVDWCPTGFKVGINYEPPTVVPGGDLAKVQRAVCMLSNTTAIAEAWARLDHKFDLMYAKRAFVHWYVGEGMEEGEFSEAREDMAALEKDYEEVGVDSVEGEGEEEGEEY
Protocol: One micromolar radiolabeled colchicine [ring C, Methoxy-3H] (Perkin-Elmer), 1% DMSO and various concentrations of test compounds in 50 µL G-PEM buffer containing 80 mmol/L PIPES (pH 6.8), 1 mmol/L EGTA, 1 mmol/L MgCl2 and 1 mmol/L GTP, and 5% glycerol were incu-bated with […] (> 99% pure; Cytoskeleton, Inc.; 0.2 mg/mL) at 37 °C for 60 min. The binding solutions were filtered through a stack of 2 DEAE-cellulose filters and washed twice. The radioactivity in the […] was determined by liquid scintillation spectrometry (Perkin-Elmer Wallac). Nonlinear regression was used to analyse the data using GraphPad Prism.

[3] = Preliminary cytotoxicity study on zebrafish embryos; settings: zebrafish, in vivo
[4] = tested on: zebrafish embryos; assay: as above; settings: at the concentration of 6 µM
[5] = tested on: MV4-11; assay: CCK-8 assay, MV4-11; format: cell-based; settings: Homo sapiens, leukaemia, AML, CCK-8, 72 h
Protocol: (§2) Cells were seeded in 96-well plates at a density of 8 × 10^3 per well and exposed to different concentrations of compounds for 72 h. Subsequently, 10 µL CCK8 solution was added to each well and co-incubated for another 3–4 h at 37 °C. The absorbance was determined at 450 nm. Data was calculated with GraphPad Prism5 software.[32]

[6] = In vitro metabolic stability, human liver microsomes; format: in vitro ADME; settings: 0.4 mg/mL protein
Protocol: as §1

[7] = tested on: HUVEC; assay: Tube formation assay; format: cell-based, human; settings: 0.1, 1 and 10 µM
Protocol: Matrigel matrix (Basement Membrane Matrix, BD Biosciences) was thawed at 4 °C overnight. At this point, 50 µL of the matrix solution was added to each well of a 96-well plate. After gelling at 37 °C for 30 min, the matrix was overlaid with 200 µL of medium containing 1 × 10^5 HUVECs per well, which was incubated for 6 h to allow capillary tubes to form. Different concentrations of compounds were added in the cultures and incubated for 6 h to monitor the morphological changes of cells and tubes. The disappearance of existing vasculature was photographed at 10х magnification. Values were expressed as percent change form control cultures grown with complete medium.[36] Standard dimensional parameters (percent area covered by HUVECs and total length of the HUVEC network per field) were noted, and standard topological parameters (number of meshes and branching points per field) were estimated.

[8] = Kinetic solubility by nephelometry; format: physicochemical; settings: kinetic from dmso stock, 1% DMSO
Protocol: Calculated physicochemical parameters. Physicochemical properties were calculated using the ChemAxon chemistry cartridge via JChem for Excel software (version 16.4.11). Compound 29e in DMSO was spiked into either pH 6.5 phosphate buffer or 0.01 M HCl (approximately pH 2.0) with the final DMSO concentration being 1%. After 30 min had elapsed, samples were analysed via Nephelometry to determine a solubility range.

[9] = tested on: CCRF-CEM; assay: CCK-8 assay, CCRF-CEM; format: cell-based; settings: Homo sapiens, leukaemia, ALL, CCK-8, 72 h
Protocol: as §2

[10] = tested on: HUVEC; assay: Transwell cell invasion experiment; format: cell-based, human; settings: 0.1 µM to 10 µM, concentration-dependent
Protocol: The upper surface of Transwell membrane was precoated with 40 µL Matrigel gel and incubated for 45 min at 37 °C for gelling. Then, cells were trypsinized and seeded at 6х10^4 per upper chamber, and cultured in 1% foetal bovine serum medium containing different concentrations of compounds. The chamber was then placed in a 24-well plate to which 10% FBS had been added. After 48 h incubation at 37 °C, both chambers were washed with PBS three times, and then fixed with 4% paraformaldehyde for 15 min, followed by staining with crystal violet. The non-invasive cells on the upper surface membrane were wiped with cotton swabs. The image of the cells on the bottom face was recorded and quantified under an inverted microscope. The results were the means calculated from three replicates of each experiment.[37]

[11] = tested on: HuT 78; assay: CCK-8 assay, HuT 78; format: cell-based; settings: Homo sapiens, HuT78; leukaemia, ALL; CCK-8, 72 h
Protocol: as §2

[12] = tested on: transgenic zebrafish (FLK-1:EGFP); assay: Zebrafish angiogenesis assay (ISVs); format: in vivo; settings: for IC50: transgenic zebrafish, triplicate, mean ± SD, read-out: Zebrafish (antiangiogenic activity IC50)
Protocol: The transgenic flk: enhanced GFP zebrafish embryos were generated by pair-wise mating, collected and sorted into the 6-well plate (n = 30 per well) with 1 ml of aquaculture water (0.2 g/L of Instant Ocean Salt in distilled water) and raised at 28 °C. Then the embryos staged at 12 h post fertilisation (hpf) were treated with the indicated concentrations of compounds which were added into embryo water. About 30 embryos were screened for each concentration gradient. At 30hpf, the treated embryos were anaesthetised with 0.02% tricaine in embryo water and photographed. The numbers of ISVs were recorded under confocal microscopy. Results were obtained from three independent determinations and presented as mean ± SD.[38]

[13] = tested on: HUVEC; assay: Toxicity on HUVEC; format: cell-based, human
[14] = tested on: HL60; assay: CCK-8 assay, HL60; format: cell-based; settings: Homo sapiens, HL-60; leukaemia, APL; CCK-8, 72 h
Protocol: as §2

With `COc1cc(C(=O)/C=C/c2cn(S(=O)(=O)c3ccccc3)c3ccccc23)cc(OC)c1OC` [Compound 29e, (E)-3–(1-(Phenylsulfonyl)-1H-indol-3-yl)-1–(3,4,5-trimethoxyphenyl)prop-2-en-1-one] the microsomal CLint at 0.5 µM [1] was 77 µL/min/mg, the half-life at 0.5 µM ([1]; 37 °C, read-out: Degradation half-life Mouse) was 60 min and the “Effect on tubulin binding of [3H]colchicine” value [2] was “efficiently bound to the [^3H]colchicine binding domain of tubulin”. The IC50 [3] was 44.6 µM, the “toxicity on zebrafish embryos” value [4] was “did not cause the toxicity” and the IC50 [5] was 0.25 ± 0.02 µM. The microsomal CLint at 0.5 µM [6] was 16 µL/min/mg, the half-life at 0.5 µM ([6]; 37 °C, read-out: Degradation half-life Human) was 35 min and the HUVEC tubule-like networks [7] was “sharply reduced the width and length”. The solubility at 30 min ([8]; 0.01 M HCl, pH 2, simulated gastric fluid, 0.01 M HCl, read-out: Solubility pH 2.0) was 25 to 50 µg/mL (≈ 52.4 to 105 µM), the solubility at 30 min ([8]; phosphate buffer, pH 6.5, aqueous buffer, phosphate buffer, read-out: Solubility pH 6.5) was ≤ 150 µg/mL and the IC50 [9] was 0.84 ± 0.08 µM. For the same compound, the “HUVEC invasion (Transwell)” value [10] was “the number of HUVEC invasion decreased”, the IC50 [11] was 0.26 ± 0.11 µM and the “Formation of intersegmental vessels (ISVs) in zebrafish embryos” value ([12]; 2.0 µM) was “efficiently blocked the formation of intersegmental vessels”. The “Number and length of ISVs in zebrafish embryos” value ([12]; 6.0 µM) was “the number and length of ISVs completely decreased”, the IC50 ([12]; Danio rerio) was 3.6 µM and the IC50 [12] was 3.4 ± 0.3 µM. The IC50 ([13]; Homo sapiens, HUVEC) was 58.6 µM, the “toxicity on HUVEC” value ([13]; at the concentration of 10 µM) was “did not cause any toxicity on HUVEC” and the IC50 [14] was 0.18 ± 0.002 µM.
